For series [1], the system named is male patients suffering from BPH. Kind of series: International Prostate Symptom Score (I-PSS) in phase II placebo-controlled study. Type of series: in vivo, human. The procedure: (§1) A phase II randomised, double blind, placebo-controlled, multi-centre, multi national study was conducted in order to investigate the use of an Teverelix TFA formulation in the composition according to the invention. In said study the International Prostate Symptom Score (I-PSS), the prostate volume, the urinary flow rate and the testosterone level in males suffering from BPH were evaluated.
(§2) The Teverelix TFA formulation was reconstituted as follows. 0.8 ml 5% mannitol was added to 60 mg of the LHRH antagonist Teverelix trifluoroacetate. The mixture was stirred using vortex during one minute providing a dosage formulation of Teverelix TFA as a flowing milky pearly microcrystalline aqueous suspension. The suspension is made of microcrystals of about 10 μm length. Corresponding placebo formulations, without Teverelix TFA, were also prepared
(§3) Formulation A: 60 mg Teverelix TFA in 0.8 ml 5% mannitol
(§4) Two single injections of Formulation A and Formulation A-placebo was administered s.c. at an interval of 48 hours to 81 male patients (41 on A and 40 on A-placebo) suffering from BPH.
The International Prostate Symptom Score (I-PSS) is based on the answers to seven questions concerning urinary symptoms and one question concerning quality of life. Each question concerning urinary symptoms allows the patient to choose one out of six answers indicating increasing severity of the particular symptom. The answers are assigned points from 0 to 5. The total score can therefore range from 0 to 35 (asymptomatic to very symptomatic).

The test system is the same in series [2]. Kind of series: Prostate volume in phase II placebo-controlled study. Format: in vivo, human. The conditions noted are these: two s.c. injections of 60 mg at an interval of 48 hours. The procedure: as §1, §2, §3, §4
Series [3] shares this test system. Kind of series: Urinary flow rate (Qmax) in phase II placebo-controlled study. The conditions noted are these: two s.c. injections of 60 mg at an interval of 48 hours. Type of series: in vivo, human. The procedure: as §1, §2, §3, §4
Series [4] has the same test system. Put plainly: Serum testosterone level in phase II placebo-controlled study. Format: in vivo, human. The note with it: two s.c. injections of 60 mg at an interval of 48 hours; FIG. 4. The procedure: as §1, §2, §3, §4
Series [5] has the same test system. Put plainly: Side effects with the use of Teverelix TFA. On the set-up: species or system human. The note with it: in vivo. The procedure: as §1, §4

From patent US20200129583A1, “COMPOSITION FOR TREATING ACUTE URINARY RETENTION” (ANTEV LIMITED, priority 2018, published 2020) come the findings set out here.

On to “N-Ac-d-Nal^1, d-pCl-Phe^2, d-Pal^3, d-(Hci)^6, Lys(iPr)^8, d-Ala^10 trifluoroacetate [Teverelix TFA]”, for which the IPSS reduction in series [1] (at 2 weeks) stood at 12.6%. Also, in series [1] (at 16 weeks), the IPSS reduction is listed as 33.9% and the “improvement in quality of life score (QoL)” value amounted to 32.8%. The “time to improvement of symptoms (I-PSS)” value in series [1] (two s.c. injections of 60 mg at an interval of 48 hours) is “within two weeks”. For the same substance, in series [1] (two s.c. injections of 60 mg at an interval of 48 hours, 16-week study, FIG. 1), the “improvement on I-PSS” value turned out to be 39.9%. For the same substance, in series [2], the “time to prostate volume reduction after initiating therapy” value is “within four weeks”. The substance further showed a prostate volume decrease in series [2] (FIG. 2) of 11.5%. The “time to significant increase in the flow rate” value in series [3] was “within the first two weeks”. Further, the “increase in maximum urinary flow rate (Qmax)” value in series [3] (at 16 weeks) is recorded as 43%. In series [4], the “reduction in the testosterone level” value is recorded as “immediate reduction” and the “time for testosterone level to return to baseline levels” value is “within eight weeks”. In addition, in series [5], the serious side effects result is reported as “no serious side effects”.
